Results reported in PubChem BioAssay (NCI).
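Values below derive from 48-hour exposures of cells grown in 96-well plates, with endpoints linearly interpolated between the two concentrations bracketing the appropriate inhibition level. The concentration for 50% growth inhibition is given as GI50. TGI: total growth inhibition.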

How the values were obtained:
Experiment in all cases: DTP human tumour cell line panel, 48 h
[1] = test system: HCT-116 colon
[2] = test system: MALME-3M melanoma
[3] = test system: MDA-MB-231 breast
[4] = test system: MDA-MB-435
[5] = test system: NCI-H23 lung
[6] = test system: SK-OV-3 ovarian
[7] = test system: SNB-75 CNS
[8] = test system: SR leukemia
[9] = test system: T-47D breast
[10] = test system: UO-31 renal

Compound	GI50 [1] [µM]	TGI [1] [µM]	GI50 [2] [µM]	TGI [2] [µM]	GI50 [3] [µM]	TGI [3] [µM]	GI50 [4] [µM]	TGI [4] [µM]	GI50 [5] [µM]	TGI [5] [µM]	GI50 [6] [µM]	TGI [6] [µM]	GI50 [7] [µM]	TGI [7] [µM]	GI50 [8] [µM]	TGI [8] [µM]	GI50 [9] [µM]	TGI [9] [µM]	GI50 [10] [µM]	TGI [10] [µM]
COc1cnc2c(c1)C(=O)c1c-2n(CCCNC2=NCCS2)c(=O)c2cc(F)ccc12	0.0825	1.83	0.598	13.2	1.14	2.57	0.75	2.37	0.22	1.66	0.182	0.914	0.358	18.9	0.0499	2.04	0.0762	17.2	0.108	1.12
CN=C(N)c1ccc(N=C(N)c2ccc(-c3ccc(C(N)=Nc4ccc(C(N)=NC)cc4)cc3)cc2)cc1	75.8	> 100	25.5	78.7	> 100	> 100	59.2	> 100	> 100	> 100	> 100	> 100	> 100	> 100	> 100	> 100	58.2	> 100	> 100	> 100
NS(=O)(=O)c1ccc(Nc2cc(-c3ccc(O)c(F)c3)[nH]n2)cc1	> 25	> 25	> 23.2	> 25	> 25	> 25	> 23.5	> 25	> 25	> 25	> 25	> 25	> 25	> 25	12.5	> 25	> 16.6	> 25	> 25	> 25
COc1cccc2c1-c1nc(N)c3c(OC)cccc3c1C2=O		> 100		> 100		> 100		> 100		> 100		> 100		46.4		> 100		> 100		> 100
O=C1NC(=S)S/C1=C\c1cn(-c2ccccc2)nc1-c1ccccc1	5.62	21.3	3.84	13.1	10.1	33.3	4.91	36.6	2.68	15.9	11.9	42.2	17.8	51.3	7.29	49.7	4.59	32.6	4.39	25.2
O=C(O)C1=C/C(=C(/c2ccccc2)c2cc(C(=O)O)c(O)c3ccccc23)c2ccccc2C1=O		> 100		> 100		> 100		> 100		> 100		> 100		> 100		> 100		> 100		> 100
CC(C)=CCc1cc2c(cc1O)C1=C(C(=O)C3=C(C1=O)S(=O)(=O)CCN3)C(C=C(C)C)O2 (stereo not given)	0.474	1.77	0.122	0.397	0.374	1.61	0.061	0.227	0.7	4.01	2.98	5.54	1.39	3.72	0.87	10.9	0.714	7.15	1.82	4.59
COc1ccc(-c2cc(-c3ccc(Nc4nc(Nc5ccccc5)nc(Nc5ccc(Cl)cc5)n4)cc3)nc(N)n2)cc1	6.74	16.8	15.2	> 50	8.28	> 50	14.5	> 50	9.4	25.9	22.7	> 50	6.02	48.1	5.63	18.7	6.3	21.7	8.13	> 50
COc1cc(/C=C/C(=O)c2cccc(-n3cc(-c4cc(OC)c(OC)c(OC)c4)[nH]c3=O)c2)cc(OC)c1OC	0.749	2.13	1.8	3.7	4.19	26.3	2.11	9.92	2	4.68	5.12	> 100	5.13	21	0.386	> 100	3.08	22.8	0.962	3.13
